From ChEMBL document CHEMBL1146392, “Isolation of Diterpenoids of the Cladiellane Class from Gorgonians of the Genus Muricella” (J Nat Prod, 1997)
In brackets after ≈: the same amount, converted by molar mass.

Legend:
Artemia = assay: Toxicity in brine shrimp; format: organism-based; conditions: in vivo
SK-MEL-2 = assay: Cytotoxicity against human SK-MEL-2 cells; format: functional; conditions: read-out: ED50 (the source's name)
HCT-15 = assay: Cytotoxicity against human HCT15 cells; format: functional; conditions: read-out: ED50 (the source's name)
SK-OV-3 = assay: Cytotoxicity against human SKOV3 cells; format: functional; conditions: read-out: ED50 (the source's name)
A549 = assay: Cytotoxicity against human A549 cells; format: functional; conditions: read-out: ED50 (the source's name)

Which LD50 (Artemia) does the source give for `CC1=C[C@@H](O)[C@H](C(C)(C)O)[C@@H]2[C@H]1[C@@H]1C/C(C)=C/CC[C@@](C)(O)[C@H]2O1` here?
The LD50 was 48 ppm.

For `CC(=O)O[C@]1(C)CC/C=C(\C)C[C@@H]2O[C@H]1[C@H]1[C@@H]2C(C)=CC[C@@H]1C(C)C`, which EC50 (SK-MEL-2) is on record?
Its EC50 is 11.6 µg/mL (≈ 33.5 µM).

What about the EC50 (HCT-15) of the same compound?
Its EC50 is 13.9 µg/mL (≈ 40.1 µM).

What about the EC50 (SK-OV-3) of the same compound?
Its EC50 is 21.3 µg/mL (≈ 61.5 µM).

And the LD50 (Artemia)?
The LD50 was 0.3 ppm.

What about the EC50 (A549) of the same compound?
Its EC50 is 12.7 µg/mL (≈ 36.7 µM).

Which LD50 (Artemia) does the source give for `CC1=CC[C@H](C(C)C)[C@@H]2[C@H]1[C@@H]1C/C(C)=C/CC[C@@](C)(O)[C@H]2O1` here?
The LD50 was 39.2 ppm.

How did the LD50 (Artemia) turn out when `C=C1C[C@@H]2O[C@@H]([C@H]3[C@@H]2C(C)=C[C@@H](OC(C)=O)[C@@H]3C(C)(C)OC(C)=O)[C@](C)(OC(C)=O)CC[C@@H]1OC(C)=O` [ASTROGORGIN] was run?
The LD50 was 1.8 ppm.

`C=C1CC[C@H](C(C)C)[C@@H]2[C@H]1[C@@H]1C/C(C)=C/CC[C@@](C)(OC(C)=O)[C@H]2O1` [CLADIELLIN] was tested. Which LD50 (Artemia) did it give?
Its LD50 is 1.3 ppm.

`CC(=O)O[C@@H]1C=C(C)[C@H]2[C@@H]([C@H]1C(C)C)[C@@H]1O[C@H]2C/C(C)=C/CC[C@@]1(C)OC(C)=O` [CALICOPHIRIN B] was tested. Which LD50 (Artemia) did it give?
The LD50 was 1 ppm.

`CC(=O)O[C@@H]1C=C(C)[C@H]2[C@@H]([C@H]1C(C)(C)OC(C)=O)[C@@H]1O[C@H]2C/C(C)=C/CC[C@@]1(C)OC(C)=O` [OPHIRIN] was tested. Which LD50 (Artemia) did it give?
Its LD50 is 8.7 ppm.
